Assay results: PMC7449161, “Nonstationary Pharmacokinetics of Caspofungin in ICU Patients” (Antimicrobial Agents and Chemotherapy, 2020)
Like-named read-outs stand apart in the source and are kept apart here.

How the values were obtained:
[1] = Population pharmacokinetics of caspofungin in ICU patients (two-compartment nonlinear mixed-effects model); assay type: in vivo, human; conditions: for clearance: human, serum, iv; for typical AUC0–24: maintenance dose of 50 mg
Excerpt: This study was registered at ClinicalTrials.gov under ID NCT03399032. It was a prospective observational study conducted in adult critically ill patients admitted to ICU due to severe sepsis requiring broad-spectrum antibiotics with a high risk of fungal infection. Both medical and surgical patients with any type of infection (pulmonary, abdominal, urinary tract, etc.) were included. Eligible consent was obtained from each patient or his or her attendant. Allergy to caspofungin, lack of consent to participate in the study, and age below 18 or above 80 years were the exclusion criteria. Thirty-three patients were enrolled in the study. Data from three patients were excluded from analysis due to technical issue with handling the samples, which made them unsuitable for analysis and the concentrations could not be determined.
The antibiotic regimen included broad-spectrum antibacterial antibiotics plus caspofungin as empirical antifungal therapy (70 mg i.v. on the first day, and 50 mg i.v. on the consecutive days) once daily. In three patients with liver failure caspofungin doses were reduced (50 mg i.v. initial and 35 mg i.v. maintenance dose). Any site of infection was treated in the manner.
Blood samples (3 ml) were collected 0.5, 2, 4, 8, 12, and 24 h after each dose of caspofungin for three consecutive days from the standard arterial cannula. Thirty minutes after each sample collection, blood was centrifuged for 10 min at 3,000 rpm. Subsequently, the supernatant was collected and frozen. Serum caspofungin concentrations were measured with high-performance liquid chromatography (HPLC).
Plasma samples were prepared for analysis according to a previously described procedure ([3]). A Dionex chromatographic system (Dionex, Sunnyvale, CA), equipped with a P580 LPG LC-6A gradient pump, UVD340S UV-visible detector, and a Rheodyne 7725 loop injector with a sufficient volume of 20 μl was employed in this study. Chromatographic separation was achieved on a Zorbax SB C18 column (150 × 4.6 mm × 5 μm) in isocratic mode. The mobile phase consisted of 20 mM triethylammonium phosphate buffer (pH 3.0): acetonitrile-methanol (50:40:10 [vol/vol/vol]; Fluka, HPLC grade). The mobile phase flow rate was 1.0 ml/min, and caspofungin absorbance was measured at 210 nm. The analytical method was validated in terms of linearity, the limits of detection (LOD) and quantification (LOQ), precision, and accuracy. The standard curves were linear over a concentration range from 0.25 to 10.0 μg/ml with an R^2 of 0.987. The LOD and LOQ values for caspofungin were 0.08 and 0.18 μg/ml, respectively. The intra- and interday accuracies ranged from 98.1 to 102.8%, and the coefficients of variation (CVs) were between 0.8 and 3.4%.
Population nonlinear mixed-effects modeling was conducted using NONMEM software (v7.3; Icon Development Solutions, Ellicott City, MD), GNU Fortran 95 compiler (GCC 4.6.0), and Wings for NONMEM (WFN741, http://wfn.sourceforge.net). The first-order conditional estimation method with η-ε interaction was employed throughout the model-building procedure. R computing environment (R Core Team 2019) was used for data processing and visualization.
The minimum value of the NONMEM objective function (OFV), typical goodness-of-fit diagnostic plots, and the evaluation of the precision of pharmacokinetic parameters and variability estimates were used to discriminate between various models during the model-building process. For hierarchical models, the decrease in OFV of 6.62 units defining an improved fit at a P of <0.01 for one additional parameter was considered to be statistically significant. The uncertainty of final model parameters was determined by nonparametric bootstrap with 1,000 replicates. The 90% confidence intervals (90% CI) for model parameters were constructed based on bootstrap results.
During the structural model-building step, candidate one-, two-, and three-compartment models were tested to describe the pharmacokinetics of caspofungin. […]

[2] = cited from earlier work
Excerpt: There are little data concerning the influence of extracorporeal membrane oxygenation (ECMO) on caspofungin pharmacokinetics ([9], [10]). ECMO is known to alter drug pharmacokinetics due to drug extraction during the procedure and a large volume of exogenous blood needed for ECMO circuit. The changes include increased volume of distribution and decreased clearance ([11]). The interactions between the ECMO circuit and the drug are not always easily predictable, but one of the vital drug characteristics determining circuit drug loss is the lipophilicity and protein binding ([12], [13]). Since ca ... || The changes in parameters with time require further investigation as they might be caused by a process that our study was not able to capture and describe. It could be the result of temporal changes in protein binding as caspofungin is highly protein-bound (97%) ([6]). Another possibility is nonlinearity in metabolic or distribution processes.

[3] = cited from earlier work; for clearance: ICU patients
Excerpt: Although the CL after the first dose (0.563 liters/h, 6.7%RSE) is well within the values reported in literature, the CL after the second dose (0.737 liters/h, 6.1%RSE) is within the highest previously reported values, and the CL after the third dose (1.01 liters/h, 9.1%RSE) almost doubles compared to CL after the first dose and literature CL values.

[4] = system: C. albicans; conditions: preclinical pharmacodynamic target; cited from earlier work
Protocol: The simulations of PTA were based on model parameters from bootstrap samples (n = 1,000) in order to include the parameter uncertainty. Predictions of AUC at steady state were performed for the standard 50-mg maintenance dose.

[5] = system: C. glabrata; conditions: preclinical pharmacodynamic target; cited from earlier work
[6] = system: C. parapsilosis; conditions: preclinical pharmacodynamic target; cited from earlier work
[7] = cited from earlier work; for CL: healthy subjects
[8] = patients with liver failure, maintenance dose of 35 mg, from individual parameters

CC[C@H](C)C[C@H](C)CCCCCCCCC(=O)N[C@H]1C[C@@H](O)[C@@H](NCCN)NC(=O)[C@@H]2[C@@H](O)CCN2C(=O)[C@H]([C@H](O)CCN)NC(=O)[C@H]([C@H](O)[C@@H](O)c2ccc(O)cc2)NC(=O)[C@@H]2C[C@@H](O)CN2C(=O)[C@H]([C@@H](C)O)NC1=O [caspofungin]
decrease in exposure between doses ([1]; CL2 versus CL1): 24% | decrease in exposure between doses ([1]; CL3 versus CL1): 44% | decrease in caspofungin exposure ([1]; associated with increasing clearance with subsequent doses, ICU patients): > 20% | clearance ([1]; estimated during model building process, ICU patients, read-out: mean CL for all three occasions (converted)): 11.8 mL/min | clearance ([1]; typical clearance after first dose, 30 ICU patients, 70 mg i.v. day 1, 50 mg i.v. once daily after, HPLC-UV, final model, read-out: θCL day 1, Estimate (%RSE) (converted)): 9.38 mL/min | clearance ([1]; typical clearance after second dose, 30 ICU patients, i.v., final model, read-out: θCL day 2, Estimate (%RSE) (converted)): 12.3 mL/min | clearance ([1]; typical clearance after third dose, 30 ICU patients, i.v., final model, read-out: θCL day 3, Estimate (%RSE) (converted)): 16.8 mL/min | θQ, Estimate (%RSE) ([1]; intercompartmental clearance, 30 ICU patients, final model): 1.31 (15.7) liter/h | typical AUC0–24 ([1]; typical clearance after first dose (CL1)): 89 mg ⋅ h/liter | typical AUC0–24 ([1]; typical clearance after second dose (CL2)): 68 mg ⋅ h/liter | typical AUC0–24 ([1]; typical clearance after third dose (CL3)): 50 mg ⋅ h/liter | minimal AUC0–24 as % of the 98 mg ⋅ h/liter target ([1]; patients with liver failure, 35 mg maintenance): 23% | maximum AUC0–24 as % of the value required for efficacy ([1]; patients with liver failure, 35 mg maintenance, 98 mg ⋅ h/liter target): 62% | AUC0–24, maximum value [1, 8]: 61 mg ⋅ h/liter | AUC0–24, minimal value [1, 8]: 23 mg ⋅ h/liter | θV1 day 1, Estimate (%RSE) ([1]; volume of distribution of central compartment after first dose, 30 ICU patients, final model): 6.04 (7.0) liter | θV1 day 2, Estimate (%RSE) ([1]; volume of distribution of central compartment after second dose, 30 ICU patients, final model): 7.32 (5.3) liter | θV1 day 3, Estimate (%RSE) ([1]; volume of distribution of central compartment after third dose, 30 ICU patients, final model): 7.70 (5.3) liter | θV2, Estimate (%RSE) ([1]; volume of distribution of peripheral compartment, 30 ICU patients, final model): 5.13 (13.7) liter | protein bound [2]: 97% | mean clearance ([3]; ICU patients (Child-Pugh B score)): 0.55 L/h | clearance ([3]; day 3 of the study): 0.57 L/h | clearance ([3]; day 7 of the study): 0.54 L/h | clearance [3]: 0.66 L/h | CL, value provided in the drug label [3]: 0.72 L/h | mean clearance ([3]; patients undergoing CRRT): 0.62 L/h | mean clearance ([3]; patients with invasive aspergillosis, value for a 76-kg patient): 0.403 L/h | target AUC/MIC [4]: 865 | target AUC/MIC [5]: 450 | target AUC/MIC [6]: 1,185 | CL ([7]; sampling for 26 weeks): 0.579 L/h | CL ([7]; sampling for 28 days): 0.631 L/h | quantifiable concentrations as long as, after administration ([7]; radioactive labeled caspofungin): 22.3 weeks
